Where a name gives a salt, the structure may show the parent alone. Read-outs that look alike come from different tables or passages of the source.
Experiments:
[1] = tested on: cultured human mast cells (CHMC), IgE-induced degranulation; assay: CHMC low cell density IgE activation: tryptase assay; assay type: cell-based; details: low cell density CHMC
In short: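 Cord-blood CD34+-derived mucosal mast cells (SCF/IL-6 medium), 1000–1500 cells/well, preincubated with compound 1 h at 37°C, then anti-IgE stimulated 30 min at 37°C.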

[2] = tested on: cultured human mast cells (CHMC), ionomycin-induced degranulation; assay: CHMC low cell density ionomycin activation: tryptase assay; assay type: cell-based; details: low cell density CHMC, ionomycin activation, 3-point, read-out: LD Tryptase, CHMC, Iono, 3pt
[3] = 3-point, read-out: LD Tryptase, CHMC, IgE, 3pt
[4] = 8-point, read-out: LD Tryptase, CHMC, IgE, 8pt

`CN1C(=O)C(C)(C)Oc2ccc(Nc3nc(Nc4cccc(-c5cnco5)c4)ncc3F)nc21` [Compound 1017, 5-Fluoro-N2-[3-(oxazol-5-yl)phenyl]-N4-[3-oxo-2,2,4-trimethyl-5-pyrid[1,4]oxazin-6-yl]-2,4-pyrimidinediamine] was tested, and the IC50 [1, 3] was < 10 µM, the IC50 [1, 4] was < 10 µM and the IC50 [2] was > 10 µM.
With `CNC(=O)COc1cccc(Nc2ncc(F)c(N(C)c3ccc4c(c3)NC(=O)C(C)(C)O4)n2)c1` [Compound 1022, N4-(2,2-Dimethyl-3-oxo-4H-benz[1,4]oxazin-6-yl)-5-fluoro-N4-methyl-N2-[3-(N-methylamino)carbonylmethyleneoxyphenyl]-2,4-pyrimidinediamine] the IC50 [1, 3] was < 10 µM, the IC50 [1, 4] was < 10 µM and the IC50 [2] was > 10 µM.
In the case of `Cc1cc(Nc2ncc(F)c(Nc3ccc4c(n3)NC(=O)C(C)(C)O4)n2)cc(Cl)c1OC1CCCC1` [Compound 1027, N2-(3-Chloro-4-cyclopentyloxy-5-methylphenyl)-N4-(2,2-dimethyl-3-oxo-4H-5-pyrid[1,4]oxazin-6-yl)-5-fluoro-2,4-pyrimidinediamine], the IC50 [1, 3] is reported as < 10 µM and the IC50 [2] is reported as > 10 µM.
For `CC1(C)Oc2ccc(Nc3nc(Nc4cccc(-c5ncco5)c4)ncc3F)nc2NC1=O` [Compound 1028, N4-(2,2-Dimethyl-3-oxo-4H-5-pyrid[1,4]oxazin-6-yl)-5-fluoro-N2-[3-(oxazol-2-yl)phenyl]-2,4-pyrimidinediamine], the IC50 [1, 3] was < 10 µM, the IC50 [1, 4] was < 10 µM and the IC50 [2] was > 10 µM.
For `CC1(C)Oc2ccc(Nc3nc(Nc4cccc(-c5cocn5)c4)ncc3F)nc2NC1=O` [Compound 1029, N4-(2,2-Dimethyl-3-oxo-4H-5-pyrid[1,4]oxazin-6-yl)-5-fluoro-N2-[3-(oxazol-4-yl)phenyl]-2,4-pyrimidinediamine], the IC50 [1, 3] was < 10 µM, the IC50 [1, 4] was < 10 µM and the IC50 [2] was > 10 µM.
`CNC(=O)COc1c(C)cc(Nc2ncc(F)c(Nc3ccc4c(n3)NC(=O)C(C)(C)O4)n2)cc1Cl` [Compound 1037, N2-[3-Chloro-5-methyl-4-(N-methylamino)carbonylmethyleneoxyphenyl]-N4-(2,2-dimethyl-3-oxo-4H-5-pyrid[1,4]oxazin-6-yl)-5-fluoro-2,4-pyrimidinediamine] was tested, and the IC50 [1, 4] was < 10 µM and the IC50 [2] was > 10 µM.
For `CCOC(=O)COc1c(C)cc(Nc2ncc(F)c(Nc3ccc4c(n3)NC(=O)C(C)(C)O4)n2)cc1C` [Compound 1038, N2-(3,5-Dimethyl-4-ethoxycarbonylmethyleneoxyphenyl)-N4-(2,2-dimethyl-3-oxo-4H-5-pyrid[1,4]oxazin-6-yl)-5-fluoro-2,4-pyrimidinediamine], the IC50 [1, 4] was < 10 µM and the IC50 [2] was > 10 µM.
For `Cc1cc(Nc2ncc(F)c(Nc3ccc4c(n3)NC(=O)C(C)(C)O4)n2)cc(Cl)c1OC(C)C` [Compound 1040, N2-(3-Chloro-4-isopropoxy-5-methylphenyl)-N4-(2,2-dimethyl-3-oxo-4H-5-pyrid[1,4]oxazin-6-yl)-5-fluoro-2,4-pyrimidinediamine], the IC50 [1, 4] was > 10 µM and the IC50 [2] was < 10 µM.
For `CNC(=O)COc1c(C)cc(Nc2ncc(F)c(Nc3ccc4c(n3)NC(=O)C(C)(C)O4)n2)cc1C` [Compound 1041, N2-[3,5-Dimethyl-4-(N-methylamino)carbonylmethyleneoxyphenyl]-N4-(2,2-dimethyl-3-oxo-4H-5-pyrid[1,4]oxazin-6-yl)-5-fluoro-2,4-pyrimidinediamine], the IC50 [1, 3] was < 10 µM, the IC50 [1, 4] was < 10 µM and the IC50 [2] was < 10 µM.
In the case of `CCOC(=O)COc1c(C)cc(Nc2ncc(F)c(Nc3ccc4c(n3)NC(=O)C(C)(C)O4)n2)cc1Cl` [Compound 1042, N2-(3-Chloro-4-ethoxycarbonylmethyleneoxy-5-methylphenyl)-N4-(2,2-dimethyl-3-oxo-4H-5-pyrid[1,4]oxazin-6-yl)-5-fluoro-2,4-pyrimidinediamine], the IC50 [1, 3] is reported as > 10 µM and the IC50 [2] is reported as > 10 µM.
For `Cc1cc(Nc2ncc(F)c(Nc3ccc4c(n3)NC(=O)C(C)(C)O4)n2)cc(Cl)c1OCC(=O)NCC(O)CO` (stereo not shown) [Compound 1043, N2-[3-Chloro-4-[N-(2,3-dihydroxypropyl)amino]carbonylmethyleneoxy-5-methylphenyl]-N4-(2,2-dimethyl-3-oxo-4H-5-pyrid[1,4]oxazin-6-yl)-5-fluoro-2,4-pyrimidinediamine], the IC50 [1, 3] was < 10 µM, the IC50 [1, 4] was < 10 µM and the IC50 [2] was > 10 µM.
With `Cc1cc(Nc2ncc(F)c(Nc3ccc4c(n3)NC(=O)C(C)(C)O4)n2)cc(C)c1OCC(=O)NC1CCCC1` [Compound 1044, N2-[3,5-Dimethyl-4-(N-cyclopentylamino)carbonylmethyleneoxyphenyl]-N4-(2,2-dimethyl-3-oxo-4H-5-pyrid[1,4]oxazin-6-yl)-5-fluoro-2,4-pyrimidinediamine] the IC50 [1, 3] was > 10 µM, the IC50 [1, 4] was > 10 µM and the IC50 [2] was > 10 µM.
For `CNC(=O)COc1cccc(Nc2ncc(F)c(Nc3ccc4c(c3)NC(=O)C(F)(F)O4)n2)c1` [Compound 1045, N4-(2,2-Difluoro-3-oxo-4H-benz[1,4]oxazin-6-yl)-5-fluoro-N2-[3-(N-methylamino)carbonylmethyleneoxyphenyl]-2,4-pyrimidinediamine Hydrogen Chloride Salt], the IC50 [1, 3] was < 10 µM, the IC50 [1, 4] was < 10 µM and the IC50 [2] was > 10 µM.
`CNC(=O)COc1cccc(Nc2ncc(F)c(Nc3ccc4c(c3)NC(=O)C(F)(F)O4)n2)c1` [Compound 1046, N4-(2,2-Difluoro-3-oxo-4H-benz[1,4]oxazin-6-yl)-5-fluoro-N2-[3-(N-methylamino)carbonylmethyleneoxyphenyl]-2,4-pyrimidinediamine Methanesulfonic Acid Salt] was tested, and the IC50 [1, 3] was < 10 µM, the IC50 [1, 4] was < 10 µM and the IC50 [2] was > 10 µM.
With `CCn1ncc2ccc(Nc3ncc(F)c(Nc4ccc5c(n4)NC(=O)C(C)(C)O5)n3)cc21` [Compound 1049, N4-(2,2-Dimethyl-3-oxo-4H-5-pyrid[1,4]oxazin-6-yl)-N2-(1-ethylindazol-6-yl)-5-fluoro-2,4-pyrimidinediamine] the IC50 [1, 3] was < 10 µM, the IC50 [1, 4] was < 10 µM and the IC50 [2] was > 10 µM.
`CC(C)n1ncc2ccc(Nc3ncc(F)c(Nc4ccc5c(n4)NC(=O)C(C)(C)O5)n3)cc21` [Compound 1050, N4-(2,2-Dimethyl-3-oxo-4H-5-pyrid[1,4]oxazin-6-yl)-N2-(1-isopropylindazol-6-yl)-5-fluoro-2,4-pyrimidinediamine] was tested, and the IC50 [1, 3] was < 10 µM, the IC50 [1, 4] was < 10 µM and the IC50 [2] was > 10 µM.
`CC1(C)CNc2nc(Nc3nc(Cl)ncc3F)ccc2O1` [Compound 1051, 2-Chloro-N4-(3,4-dihydro-2,2-dimethyl-4H-5-pyrid[1,4]oxazin-6-yl)-5-fluoro-4-pyrimidinea mine] was tested, and the IC50 [1, 3] was > 10 µM and the IC50 [2] was > 10 µM.
`Cn1ncc2ccc(Nc3ncc(F)c(Nc4ccc5c(n4)NCC(C)(C)O5)n3)cc21` [Compound 1052, N4-(3,4-Dihydro-2,2-dimethyl-4H-5-pyrid[1,4]oxazin-6-yl)-5-fluoro-N2-(1-methylindazol-6-yl)-2,4-pyrimidinediamine] was tested, and the IC50 [1, 3] was < 10 µM, the IC50 [1, 4] was < 10 µM and the IC50 [2] was < 10 µM.
`CNC(=O)COc1cccc(Nc2ncc(F)c(Nc3ccc4c(n3)NCC(C)(C)O4)n2)c1` [Compound 1053, N4-(3,4-Dihydro-2,2-dimethyl-4H-5-pyrid[1,4]oxazin-6-yl)-5-fluoro-N2-[3-(N-methylamino)carbonylmethyleneoxyphenyl]-2,4-pyrimidinediamine] was tested, and the IC50 [1, 3] was < 10 µM, the IC50 [1, 4] was < 10 µM and the IC50 [2] was > 10 µM.
`CNC(=O)c1ccc(Nc2ncc(F)c(Nc3ccc4c(n3)NC(=O)C(C)(C)O4)n2)cc1Cl` [Compound 1054, N2-[3-Chloro-4-(N-methylamino)carbonylphenyl]-N4-(2,2-dimethyl-3-oxo-4H-5-pyrid[1,4]oxazin-6-yl)-5-fluoro-2,4-pyrimidinediamine] was tested, and the IC50 [1, 3] was < 10 µM, the IC50 [1, 4] was < 10 µM and the IC50 [2] was > 10 µM.
With `CC1(C)Oc2ccc(Nc3nc(Nc4ccc5c(c4)OCCO5)ncc3F)nc2NC1=O` [Compound 1055, N4-(2,2-Dimethyl-3-oxo-4H-5-pyrid[1,4]oxazin-6-yl)-N2-(3,4-ethylenedioxyphenyl)-5-fluoro-2,4-pyrimidinediamine] the IC50 [1, 3] was < 10 µM, the IC50 [1, 4] was < 10 µM and the IC50 [2] was > 10 µM.
`Cn1ncc2ccc(Nc3ncc(F)c(Nc4ccc5c(n4)NC(=O)C(C)(C)O5)n3)cc21` [Compound 1057, N4-(2,2-Dimethyl-3-oxo-4H-5-pyrid[1,4]oxazin-6-yl)-5-fluoro-N2-[1-methylindazol-6-yl]-2,4-pyrimidinediamine p-Toluenesulfonic Acid Salt] was tested, and the IC50 [1, 3] was < 10 µM, the IC50 [1, 4] was < 10 µM and the IC50 [2] was > 10 µM.
With `C[C@@H]1Oc2ccc(Nc3nc(Nc4cc(C(C)(C)C)[nH]n4)ncc3F)nc2NC1=O` [Compound 1092, (S)—N2-(5-tert-Butyl-1H-pyrazol-3-yl)-5-fluoro-N4-(2-methyl-3-oxo-2H,4H-5-pyrid[1,4]oxazin-6-yl)-2,4-pyrimidinediamine] the IC50 [1, 3] was < 10 µM, the IC50 [1, 4] was < 10 µM and the IC50 [2] was > 10 µM.
With `Fc1cnc(Cl)nc1Nc1ccc2c(n1)NCCO2` [Compound 1117, 2-Chloro-5-fluoro-N4-(3,4-dihydro-2H,4H-5-pyrid[1,4]oxazin-6-yl)-4-pyrimidineamine] the IC50 [1, 3] was > 10 µM and the IC50 [2] was > 10 µM.
For `Fc1cnc(Nc2ccc(N3CCOCC3)cc2)nc1Nc1ccc2c(n1)NCCO2` [Compound 1128, N4-(3,4-Dihydro-2H,4H-5-pyrid[1,4]oxazin-6-yl)-5-fluoro-N2-(4-morpholinophenyl)-2,4-pyrimidinediamine], the IC50 [1, 4] was < 10 µM and the IC50 [2] was > 10 µM.
With `CN1CCN(c2ccc(Nc3ncc(F)c(Nc4ccc5c(n4)NCCO5)n3)cc2)CC1` [Compound 1141, N4-(3,4-Dihydro-2H,4H-5-pyrid[1,4]oxazin-6-yl)-5-fluoro-N2-[4-(4-methylpiperazino)phenyl]-2,4-pyrimidinediamine] the IC50 [1, 3] was < 10 µM, the IC50 [1, 4] was < 10 µM and the IC50 [2] was > 10 µM.

From patent publication US7560466B2, “Methods of treating or preventing autoimmune diseases with 2,4-pyrimidinediamine compounds” (Rigel Pharmaceuticals, Inc., priority 2003, dated 2009)
